Laboratory results: US9695155B2, “Herbicidal substituted pyrimidinyloxy benzene compounds” (E. I. DU PONT DE NEMOURS AND COMPANY, priority 2013, dated 2017)

Assays:
Test in all cases: Test F preemergence
Details in all cases: 21 days, scale 0 to 100
sowthistle = assay type: in vivo, Sonchus oleraceous
Text: (§1) Seeds of plant species selected from bermudagrass (Cynodon dactylon), surinam grass (Brachiaria decumbens), large (Lg) crabgrass (Digitaria sanguinalis), crabgrass, naked (naked crabgrass, Digitaria nuda), foxtail, green (green foxtail, Setaria viridis), johnsongrass (Sorghum halepense), kochia (Kochia scoparia), morningglory (pitted morningglory, Ipomoea lacunosa), nutsedge, purple (purple nutsedge, Cyperus rotundus), ragweed (common ragweed, Ambrosia elatior), mustard, black (black mustard, Brassica nigra), guineagrass (Panicum maximum), dallisgrass (Paspalum dilatatum), barnyardgrass (Echinochloa crus-galli), sandbur (southern sandbur, Cenchrus echinatus), sowthistle (common sowthistle, Sonchus oleraceous), Italian ryegrass (Lolium multiflorum), signalgrass (broadleaf signalgrass, Brachiaria platyphylla), dayflower (Virginia (VA) dayflower, Commelina virginica), bluegrass (annual bluegrass, Poa annua), quackgrass (Elytrigia repens), mallow (common mallow, Malva sylvestris), buckwheat, wild (wild buckwheat, Polygonum convolvulus), leafy spurge (Euphorbia esula), chickweed (common chickweed, Stellaria media), wild poinsettia (Euphorbia heterophylla), and pigweed (Amaranthus retroflexus) were planted into a blend of loam soil and sand and treated preemergence with test chemicals formulated in a non-phytotoxic solvent mixture which included a surfactant.
(§2) Treated plants and controls were maintained in a greenhouse for 21 days, after which time all species were compared to controls and visually evaluated. Plant response ratings, summarized in Table F, are based on a scale of 0 to 100 where 0 is no effect and 100 is complete control. A dash (-) response means no test result.

quackgrass = assay type: in vivo, Elytrigia repens
Text: as §1, §2

mallow = assay type: in vivo, Malva sylvestris
Text: as §1, §2

johnsongrass = assay type: in vivo, Sorghum halepense
Text: as §1, §2

bermudagrass = assay type: in vivo, Cynodon dactylon
Text: as §1, §2

guineagrass = assay type: in vivo, Panicum maximum
Text: as §1, §2

mustard, black = assay type: in vivo, Brassica nigra
Text: as §1, §2

SMILES | Plant response rating, Sowthistle (sowthistle; 16 g ai/ha) | Plant response rating, Sowthistle (sowthistle; 31 g ai/ha) | Plant response rating, Sowthistle (sowthistle; 62 g ai/ha) | Plant response rating, Sowthistle (sowthistle; 125 g ai/ha) | Plant response rating, Sowthistle (sowthistle; 250 g ai/ha) | Plant response rating, Quackgrass (quackgrass; 16 g ai/ha) | Plant response rating, Quackgrass (quackgrass; 31 g ai/ha) | Plant response rating, Quackgrass (quackgrass; 62 g ai/ha) | Plant response rating, Quackgrass (quackgrass; 125 g ai/ha) | Plant response rating, Quackgrass (quackgrass; 250 g ai/ha) | Plant response rating, Mallow (mallow; 16 g ai/ha) | Plant response rating, Mallow (mallow; 31 g ai/ha) | Plant response rating, Mallow (mallow; 62 g ai/ha) | Plant response rating, Mallow (mallow; 125 g ai/ha) | Plant response rating, Mallow (mallow; 250 g ai/ha) | Plant response rating, Johnsongrass (johnsongrass; 16 g ai/ha) | Plant response rating, Johnsongrass (johnsongrass; 31 g ai/ha) | Plant response rating, Johnsongrass (johnsongrass; 62 g ai/ha) | Plant response rating, Johnsongrass (johnsongrass; 125 g ai/ha) | Plant response rating, Johnsongrass (johnsongrass; 250 g ai/ha) | further results
N#Cc1cccc(Oc2ncc(Cl)cn2)c1-n1cc(OC(F)F)cn1 [Compound 97] | 100 | 100 | 100 | 100 | 100 | 0 | 35 | 50 | 95 | 100 | 30 | 75 | 98 | 100 | 100 | 0 | 65 | 95 | 100 | 100 | Plant response rating, Bermudagrass (bermudagrass; 16 g ai/ha): 80; Plant response rating, Bermudagrass (bermudagrass; 31 g ai/ha): 95; Plant response rating, Bermudagrass (bermudagrass; 62 g ai/ha): 100; Plant response rating, Bermudagrass (bermudagrass; 125 g ai/ha): 100; Plant response rating, Bermudagrass (bermudagrass; 250 g ai/ha): 100; Plant response rating, Guineagrass (guineagrass; 16 g ai/ha): 100; Plant response rating, Guineagrass (guineagrass; 31 g ai/ha): 100; Plant response rating, Guineagrass (guineagrass; 62 g ai/ha): 100; Plant response rating, Guineagrass (guineagrass; 125 g ai/ha): 100; Plant response rating, Guineagrass (guineagrass; 250 g ai/ha): 100; Plant response rating, Mustard, Black (mustard, black; 16 g ai/ha): 90; Plant response rating, Mustard, Black (mustard, black; 31 g ai/ha): 100; Plant response rating, Mustard, Black (mustard, black; 62 g ai/ha): 100; Plant response rating, Mustard, Black (mustard, black; 125 g ai/ha): 100; Plant response rating, Mustard, Black (mustard, black; 250 g ai/ha): 100
N#Cc1cccc(Oc2ncc(F)cn2)c1-n1cc(C(F)(F)F)cn1 [Compound 79, 3-[(5-fluoro-2-pyrimidinyl)oxy]-2-[4-(trifluoromethyl)-1H-pyrazol-1-yl]benzonitrile] | 100 | 100 | 100 | 100 | 100 | 40 | 70 | 95 | 98 | 100 | 98 | 100 | 100 | 100 | 100 | 65 | 100 | 100 | 100 | 100 | Plant response rating, Bermudagrass (bermudagrass; 16 g ai/ha): 98; Plant response rating, Bermudagrass (bermudagrass; 31 g ai/ha): 100; Plant response rating, Bermudagrass (bermudagrass; 62 g ai/ha): 100; Plant response rating, Bermudagrass (bermudagrass; 125 g ai/ha): 100; Plant response rating, Bermudagrass (bermudagrass; 250 g ai/ha): 100; Plant response rating, Guineagrass (guineagrass; 16 g ai/ha): 100; Plant response rating, Guineagrass (guineagrass; 31 g ai/ha): 100; Plant response rating, Guineagrass (guineagrass; 62 g ai/ha): 100; Plant response rating, Guineagrass (guineagrass; 125 g ai/ha): 100; Plant response rating, Guineagrass (guineagrass; 250 g ai/ha): 100; Plant response rating, Mustard, Black (mustard, black; 16 g ai/ha): 100; Plant response rating, Mustard, Black (mustard, black; 31 g ai/ha): 100; Plant response rating, Mustard, Black (mustard, black; 62 g ai/ha): 100; Plant response rating, Mustard, Black (mustard, black; 125 g ai/ha): 100; Plant response rating, Mustard, Black (mustard, black; 250 g ai/ha): 100
